{"source": "patent US20090030017A1", "about": "“THERAPEUTIC AGENT FOR DYSKINESIA” (Eisai R & D Management Co., Ltd, priority 2005, published 2009)", "key": {"dyskinesia [1]": {"test_system": "dyskinesia", "conditions": "rhesus monkey models; cited from earlier work"}, "[2]": {"test_system": "L-DOPA induced dyskinesia", "assay": "L-DOPA induced dyskinesia model in monkey (MPTP-treated, L-DOPA methylester and benserazide)", "type": "in vivo, crab-eating macaques", "conditions": "substance administered 20 minutes before L-DOPA methylester and benserazide, scored every 30 minutes for 5 hours", "description": "To male crab-eating macaques, MPTP (1-methyl-4-phenyl-1,2,3,6-tetrahydropyridine) was frequently administered intravenously or subcutaneously in a dose of 0.2 to 1 mg/kg to cause Parkinson's disease.\nIn order to check the effect of the substance to be tested, i.e., 3-(2-cyanophenyl)-5-(2-pyridyl)-1-phenyl-1,2-dihydropyridine-2-on, the administration dose of L-DOPA methylester was adjusted to control the severity of the dyskinesia to a certain state.\nThe behavior before the administration of drugs (L-DOPA methylester and benserazide) was recorded, and then the substance to be tested was administered. 20 minutes after that, L-DOPA methylester and benserazide were administered.\nThe severity of the symptoms of Parkinson's disease was evaluated based on the items shown in Table 1 in a blinded manner, and shown as the total score.\nThe dyskinesia induced by the side effects of the administration of L-DOPA methylester and benserazide was evaluated based on the items shown in Table 2 in a blinded manner. […]\nThe symptoms were evaluated in a time-series manner before the administration of the drugs, and every 30 minutes after the administration of the drugs, for a total of 5 hours. The effect of the substance to be tested was determined as follows. […]"}, "dyskinesia [3]": {"test_system": "dyskinesia", "conditions": "cited from earlier work"}, "dyskinesia [4]": {"test_system": "dyskinesia", "conditions": "cited from earlier work", "remark": "listed apart in the source"}}, "note": "Where two headings read alike, the source gives them in different places."}
{"smiles": "CCN(CC)Cc1cccc(C=Cc2nc3ccc(F)cc3c(=O)n2-c2ccccc2Cl)n1", "note": "[3-(2-chlorophenyl)-2-[2-(6-diethylaminomethylpyridine-2-yl)-vinyl]-6-fluoro-3H-quinazoline-4-on]", "values": [{"measurement": "effect on dyskinesia", "setting": "dyskinesia [1]", "value": "has an effect on dyskinesia"}]}
{"smiles": "N#Cc1ccccc1-c1cc(-c2ccccn2)cn(-c2ccccc2)c1=O", "note": "[3-(2-cyanophenyl)-5-(2-pyridyl)-1-phenyl-1,2-dihydropyridine-2-on]", "values": [{"measurement": "effect on dyskinesia (dyskinesia score, severity of dyskinesia)", "setting": "[2]; FIG. 1, significant vs solvent P<0.01", "value": "provided an dyskinesia suppressing action"}, {"measurement": "effect on the symptoms of Parkinson's disease (total score)", "setting": "[2]; FIG. 2, significant vs solvent P<0.05, P<0.01", "value": "clearly improving the symptoms of Parkinson's disease"}]}
{"smiles": "CC(=O)N1N=C(c2ccc(N)cc2)c2cc3c(cc2C[C@H]1C)OCO3", "note": "[LY-300164, Talampanel]", "values": [{"measurement": "effect on dyskinesia", "setting": "dyskinesia [3]; MPTP-treated monkeys with L-DOPA induced dyskinesia", "value": "the dyskinesia were improved"}, {"measurement": "effect on the symptoms of Parkinson's disease (symptom scores)", "setting": "dyskinesia [3]; experiment with the monkeys", "value": "not recognized as having an effect of clearly improving the symptoms of Parkinson's disease"}]}
{"smiles": "CC1(C)O[C@@H]2[C@@H](CO[C@@]3(COS(N)(=O)=O)OC(C)(C)O[C@@H]23)O1", "note": "[Topiramate]", "values": [{"measurement": "effect on the symptoms of Parkinson's disease", "setting": "dyskinesia [4]; in vivo", "value": "shows a tendency of deteriorating the symptoms of Parkinson's disease, although not significantly"}, {"measurement": "effect on dyskinesia", "setting": "dyskinesia [4]; marmoset models", "value": "has an action of suppressing dyskinesia"}]}
